Assay results published in US20230339854A1, “Negative Allosteric Modulation of GluN3-Containing N-Methyl-D-Aspartate Receptors” (Emory University, priority 2020, published 2023).
Like-named read-outs stand apart in the source and are kept apart here.

Key:
[1] = molecular target: T1, human GluN1^FA,TL/GluN3A receptors (Homo sapiens, UniProt Q8TCU5); experiment: Two-electrode voltage-clamp recordings of GluN1^FA,TL/GluN3A receptors in Xenopus oocytes; assay type: cell-based; details: for Max Inhibition: fitted maximum at saturating test compound, 100 × (1 − Idrug/Icontrol); for IC50: hGluN1^FA,TL/hGluN3A; for remaining activity at 30 µM: read-out: hGluN1^FA,TL/hGluN3A (100 × Idrug/Icontrol at 30 μM drug)
T1 construct: Human GluN3A (NP_597702.2) and rat GluN3B (NP_579842.2) were synthesized and subcloned into SP6 plasmids; expressed in transfected cells; host or cells: Xenopus laevis oocytes, cRNA injection (GluN1:GluN3 1:3)
Source text: cDNA encoding human wild-type (WT) GluN1-1a (GenBank accession numbers NP_015566, hereafter GluN1) and rat GluN1-1a (NP_058706.1) were synthesized and subcloned into pGEMHE plasmid; some experiments used the rat splice variant GluN1-4a (NP_001257531.1). Human GluN3A (NP_597702.2) and rat GluN3B (NP_579842.2) were synthesized and subcloned into SP6 plasmids. For most experiments, human GluN1 was co-expressed with human GluN3A, except for mutagenesis experiments where rat GluN1 was co-expressed with human GluN3A. Rat GluN1-4a was always expressed with rat GluN3B.
Defolliculated Xenopus laevis oocytes (stage V-VI) were obtained from Ecocyte BioScience (Austin, Texas), or prepared from commercially available Xenopus ovaries (Xenopus 1, Dexter, MI) as previously described (Hansen, et al., Mol. Pharmacol., 2013). A Drummond Nanoject II (Broomall, PA) was used to inject oocytes with cRNAs encoding GluN1 and GluN3 at a 1:3 ratio in RNase-free water. The cRNA was diluted as needed to give responses with amplitudes ranging between 200-2000 nA (0.2-10 ng total cRNA). Following cRNA injection, the oocytes were stored at 15-19° C. in Barth's solution that contained (in mM) 88 NaCl, 2.4 NaHCO3, 1 KCl, 0.33 Ca(NO3)2, 0.41 CaCl2), 0.82 MgSO4, and 5 Tris-HCl (pH 7.4 with NaOH), supplemented with 1 μg/ml streptomycin (Invitrogen, Carlsbad, CA) and 100 μg/ml gentamicin (Fisher Scientific, Pittsburgh, PA). Recordings were performed 2-5 days following cRNA microinjection at room temperature (23° C.) using a two-electrode voltage-clamp amplifier (OC725, Warner Instrument, Hamilton, CT). The signal was low-pass filtered at 10-20 Hz (4-pole, −3 dB Bessel) and digitized at the Nyquist rate using PCI-6025E or USB-6212 BNC data acquisition boards (National Instruments, Austin, TX) using EasyOocyte (http://www.easyoocyte.io/). Oocytes were placed in a custom-made chamber and continuously perfused (2.5 ml/min) with oocyte recording solution containing (in mM) 90 NaCl, 1 KCl, 10 HEPES, 0.5-1.0 BaCl2, and 0.01 EDTA (pH 7.4 with NaOH). Solutions were applied by gravity, and solution exchange was controlled through a rotary valve (Hamilton, Reno, NV). Recording electrodes were filled with 0.3-3.0 M KCl, and current responses were recorded at a holding potential of −40 mV.
Response (%)=(100−minimum)/(1+([concentration]/IC50)^nH)+minimum (2) • where nH is the Hill slope, IC50 is the concentration that produces a half-maximal effect, and minimum is the degree of residual inhibition at a saturating concentration of the negative allosteric modulator.
The afore-referenced compounds were screened in the same assay as EU1180-438 to determine their effects on hGluN1^FA,TL/hGluN3A receptors. Selected compounds that inhibited by more than 20% at the concentration at which they were initially evaluated (either 10 or 30 μM) were analyzed further, and a dose-response curve was generated to determine their IC50 values.

[2] = tested on: GluN1/GluN2 NMDA receptors (GluN2A, GluN2B, GluN2C, GluN2D); experiment: Recombinant GluN1/GluN2 NMDA receptors in Xenopus oocytes (selectivity); assay type: cell-based, rat; details: 30 μM

T1 sequence (Q8TCU5 24-1115, other chains not shown): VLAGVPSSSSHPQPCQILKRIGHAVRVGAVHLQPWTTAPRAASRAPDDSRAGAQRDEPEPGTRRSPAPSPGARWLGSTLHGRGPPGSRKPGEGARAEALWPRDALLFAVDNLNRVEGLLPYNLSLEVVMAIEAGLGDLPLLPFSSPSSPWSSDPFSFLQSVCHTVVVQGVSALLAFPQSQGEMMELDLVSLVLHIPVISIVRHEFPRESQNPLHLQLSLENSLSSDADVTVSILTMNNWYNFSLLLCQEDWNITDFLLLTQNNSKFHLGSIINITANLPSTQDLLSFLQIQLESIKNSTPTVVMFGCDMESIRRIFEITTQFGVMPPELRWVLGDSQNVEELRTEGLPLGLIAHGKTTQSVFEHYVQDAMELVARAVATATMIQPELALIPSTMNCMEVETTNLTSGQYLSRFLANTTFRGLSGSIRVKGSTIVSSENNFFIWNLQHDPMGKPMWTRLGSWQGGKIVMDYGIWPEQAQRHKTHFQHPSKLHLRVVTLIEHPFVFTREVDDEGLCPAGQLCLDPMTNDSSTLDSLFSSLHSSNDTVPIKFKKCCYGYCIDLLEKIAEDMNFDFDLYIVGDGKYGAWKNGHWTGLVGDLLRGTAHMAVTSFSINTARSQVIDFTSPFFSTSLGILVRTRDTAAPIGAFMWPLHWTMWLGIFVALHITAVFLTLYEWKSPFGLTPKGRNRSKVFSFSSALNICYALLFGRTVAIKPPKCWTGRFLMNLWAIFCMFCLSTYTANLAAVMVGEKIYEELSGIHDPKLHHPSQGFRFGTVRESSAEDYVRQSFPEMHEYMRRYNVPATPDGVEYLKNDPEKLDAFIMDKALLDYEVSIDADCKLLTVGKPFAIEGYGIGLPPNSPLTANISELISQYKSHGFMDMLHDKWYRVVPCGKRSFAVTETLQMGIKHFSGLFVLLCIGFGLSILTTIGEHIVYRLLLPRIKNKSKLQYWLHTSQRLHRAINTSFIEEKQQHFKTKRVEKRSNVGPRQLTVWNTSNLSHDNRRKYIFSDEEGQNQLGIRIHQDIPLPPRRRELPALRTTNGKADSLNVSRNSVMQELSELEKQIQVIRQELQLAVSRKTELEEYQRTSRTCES

| Compound | remaining activity at 30 µM [1] | also measured |
| --- | --- | --- |
| COc1ccc(OCC(c2ccc(OC)c(OC)c2)N2Cc3ccccc3C2=O)cc1 (stereo not shown) [EU1180-494, 2-(1-(3,4-dimethoxyphenyl)-2-(4-methoxyphenoxy)ethyl)isoindolin-1-one] |  | Max Inhibition [1]: 3%; activity toward recombinant GluN1/GluN2 NMDA receptors (GluN2A-D) [2]: no detectable activity |
| COc1ccc(OCC(c2ccc(OC(C)C)cc2)N2Cc3ccccc3C2=O)cc1 (stereo not shown) [EU1180-481, 2-(1-(4-isopropoxyphenyl)-2-(4-methoxyphenoxy)ethyl)isoindolin-1-one] |  | hGluN1^FA,TL/hGluN3A (100 × Idrug/Icontrol) ([1]; @ 10 μM): 57%; Max Inhibition [1]: 54%; IC50 ([1]; read-out: IC50): 3.12 µM; IC50 ([1]; read-out: IC50 (95% CI) GluN3A): 3.12 µM; activity toward recombinant GluN1/GluN2 NMDA receptors (GluN2A-D) [2]: no detectable activity |
| CCOc1ccc(OCC(c2ccc(OC(C)C)cc2)N2Cc3ccc(Br)cc3C2=O)cc1 (stereo not shown) [EU1180-592, 6-bromo-2-(2-(4-ethoxyphenoxy)-1-(4-isopropoxyphenyl)ethyl)isoindolin-1-one] | 78% |  |
| CC(C)Oc1ccc(C(COc2ccc(C(F)(F)F)cc2)N2Cc3cc(F)ccc3C2=O)cc1 (stereo not shown) [EU1180-576, 5-fluoro-2-(1-(4-isopropoxyphenyl)-2-(4-(trifluoromethyl)phenoxy)ethyl)isoindolin-1-one] | 104% |  |
| COc1ccc(OCC(c2ccc(OC)cc2)N2Cc3cc(F)ccc3C2=O)cc1 (stereo not shown) [EU1180-521, 5-Fluoro-2-(2-(4-methoxyphenoxy)-1-(4-methoxyphenyl)ethyl)isoindolin-1-one] | 60% |  |
| COc1ccc(OCC(c2ccc(OC(C)C)cc2)N2Cc3ccc(Cl)cc3C2=O)cc1 (stereo not shown) [EU1180-564, 6-chloro-2-(1-(4-isopropoxyphenyl)-2-(4-methoxyphenoxy)ethyl)isoindolin-1-one] | 96% |  |
| COc1ccc(OCC(c2ccc(OC)c(OC)c2)N2Cc3ccc(C(F)(F)F)cc3C2=O)cc1 (stereo not shown) [EU1180-523, 2-(1-(3,4-Dimethoxyphenyl)-2-(4-methoxyphenoxy)ethyl)-6-(trifluoromethyl)isoindolin-1-one] | 104% |  |
| CCOc1ccc(OCC(c2ccc(OC(C)C)cc2)N2Cc3cc(Cl)ccc3C2=O)cc1 (stereo not shown) [EU1180-589, 5-chloro-2-(2-(4-ethoxyphenoxy)-1-(4-isopropoxyphenyl)ethyl)isoindolin-1-one] | 87% |  |
| CC(C)Oc1ccc(C(COc2ccc(OC(F)(F)F)cc2)N2Cc3ccc(C(F)(F)F)cc3C2=O)cc1 (stereo not shown) [EU1180-539, 2-(1-(4-isopropoxyphenyl)-2-(4-(trifluoromethoxy)phenoxy)ethyl)-6-(trifluoromethyl)isoindolin-1-one] | 99% |  |
| COc1ccc(OCC(c2ccc(OC(C)C)cc2)N2Cc3ccc(Br)cc3C2=O)cc1 (stereo not shown) [EU1180-562, 6-bromo-2-(1-(4-isopropoxyphenyl)-2-(4-methoxyphenoxy)ethyl)isoindolin-1-one] | 98% |  |
| CC(C)Oc1ccc(C(COc2ccc(C(F)(F)F)cc2)N2Cc3ccc(F)cc3C2=O)cc1 (stereo not shown) [EU1180-575, 6-fluoro-2-(1-(4-isopropoxyphenyl)-2-(4-(trifluoromethyl)phenoxy)ethyl)isoindolin-1-one] | 76% |  |
| COc1ccc(OCC(c2ccc(OC(C)C)cc2)N2Cc3cc(F)ccc3C2=O)cc1 (stereo not shown) [EU1180-561, 5-fluoro-2-(1-(4-isopropoxyphenyl)-2-(4-methoxyphenoxy)ethyl)isoindolin-1-one] | 88% |  |
| CC(C)Oc1ccc(C(COc2ccc(C(F)(F)F)cc2)N2Cc3ccccc3C2=O)cc1 (stereo not shown) [EU1180-571, 2-(1-(4-isopropoxyphenyl)-2-(4-(trifluoromethyl)phenoxy)ethyl)isoindolin-1-one] | 94% |  |
| COc1ccc(OCC(c2ccc(OC(C)C)cc2)N2Cc3ccc(F)cc3C2=O)cc1 (stereo not shown) [EU1180-560, 6-fluoro-2-(1-(4-isopropoxyphenyl)-2-(4-methoxyphenoxy)ethyl)isoindolin-1-one] | 23% |  |
| CC(C)Oc1ccc(C(COc2ccc(OC(F)(F)F)cc2)N2Cc3ccc(F)cc3C2=O)cc1 (stereo not shown) [EU1180-542, 6-fluoro-2-(1-(4-isopropoxyphenyl)-2-(4-(trifluoromethoxy)phenoxy)ethyl)isoindolin-1-one] | 98% |  |

The next lines start with results.

| remaining activity at 30 µM [1] | Compound | also measured |
| --- | --- | --- |
| 73% | COc1ccc(C(COc2cccc(C)n2)N2Cc3ccc(F)cc3C2=O)c(F)c1 (stereo not shown) [EU1180-602, 6-Fluoro-2-(1-(2-fluoro-4-methoxyphenyl)-2-((6-methylpyridin-2-yl)oxy)ethyl)isoindolin-1-one] |  |
| 70% | COc1cc(F)c(C(COc2cccc(C)n2)N2Cc3ccccc3C2=O)c(F)c1 (stereo not shown) [EU1180-608, 2-(1-(2,6-Difluoro-4-methoxyphenyl)-2-((6-methylpyridin-2-yl)oxy)ethyl)isoindolin-1-one] |  |
| 95% | COc1ccc(OCC(c2c(F)cc(OC)cc2F)N2Cc3cc(Br)ccc3C2=O)cc1 (stereo not shown) [EU1180-549, 5-Bromo-2-(1-(2,6-difluoro-4-methoxyphenyl)-2-(4-methoxyphenoxy)ethyl)isoindolin-1-one] |  |
| 81% | COc1cc(F)c(C(COc2cccc(C)n2)N2Cc3ccc(C(F)(F)F)cc3C2=O)c(F)c1 (stereo not shown) [EU1180-609, 2-(1-(2,6-Difluoro-4-methoxyphenyl)-2-((6-methylpyridin-2-yl)oxy)ethyl)-6-(trifluoromethyl)isoindolin-1-one] |  |
| 57% | COc1cc(F)c(C(COc2cccc(C)n2)N2Cc3ccc(Cl)cc3C2=O)c(F)c1 (stereo not shown) [EU1180-611, 6-Chloro-2-(1-(2,6-difluoro-4-methoxyphenyl)-2-((6-methylpyridin-2-yl)oxy)ethyl)isoindolin-1-one] | IC50 ([1]; read-out: IC50): 63 µM |
| 36% | Cc1cccc(OCC(c2ccc(OC(C)C)cc2)N2Cc3ccc(F)cc3C2=O)n1 (stereo not shown) [EU1180-512, 6-fluoro-2-(1-(4-isopropoxyphenyl)-2-((6-methylpyridin-2-yl)oxy)ethyl)isoindolin-1-one] |  |
| 80% | COc1ccc(OCC(c2ccc(OC)cc2F)N2Cc3cc(F)ccc3C2=O)cc1 (stereo not shown) [EU1180-536, 5-Fluoro-2-(1-(2-fluoro-4-methoxyphenyl)-2-(4-methoxyphenoxy)ethyl)isoindolin-1-one] |  |
| 83% | COc1ccc(OCC(c2ccc(OC)cc2F)N2Cc3ccc(Br)cc3C2=O)cc1 (stereo not shown) [EU1180-535, 6-Bromo-2-(1-(2-fluoro-4-methoxyphenyl)-2-(4-methoxyphenoxy)ethyl)isoindolin-1-one] |  |
| 75% | COc1ccc(C(COc2cccc(C)n2)N2Cc3ccc(Cl)cc3C2=O)cc1 (stereo not shown) [EU1180-595, 6-Chloro-2-(1-(4-methoxyphenyl)-2-((6-methylpyridin-2-yl)oxy)ethyl)isoindolin-1-one] |  |
| 66% | COc1ccc(OCC(c2ccc(OC)cc2F)N2Cc3ccc(F)cc3C2=O)cc1 (stereo not shown) [EU1180-537, 6-Fluoro-2-(1-(2-fluoro-4-methoxyphenyl)-2-(4-methoxyphenoxy)ethyl)isoindolin-1-one] |  |
| 76% | COc1cc(F)c(C(COc2cccc(C)n2)N2Cc3cc(Cl)ccc3C2=O)c(F)c1 (stereo not shown) [EU1180-610, 5-Chloro-2-(1-(2,6-difluoro-4-methoxyphenyl)-2-((6-methylpyridin-2-yl)oxy)ethyl)isoindolin-1-one] |  |
| 98% | COc1ccc(OCC(c2c(F)cc(OC)cc2F)N2Cc3cc(Cl)ccc3C2=O)cc1 (stereo not shown) [EU1180-547, 5-Chloro-2-(1-(2,6-difluoro-4-methoxyphenyl)-2-(4-methoxyphenoxy)ethyl)isoindolin-1-one] |  |
| 25% | COc1ccc(OCC(c2ccc(OC)cc2)N2Cc3ccc(F)cc3C2=O)cc1 (stereo not shown) [EU1180-522, 6-Fluoro-2-(2-(4-methoxyphenoxy)-1-(4-methoxyphenyl)ethyl)isoindolin-1-one] |  |
